One experiment concerns the target T1, serotonin 2 receptor (Rattus norvegicus, UniProt P14842).
T1 construct: To the receptor fraction of the cerebral cortex were added a test compound and 0.3 nM of [^3H] ketanserin; from tissue; host or cells: rat cerebral cortex membrane fraction
The experiment in a line: Binding test on [3H] ketanserin, cerebral cortex receptor fraction. The settings on record: 0.3 nM [3H] ketanserin, 37° C. 15 min, read-out: 5HT2. Also noted: species or system SD rats.

A further experiment deals with T2, serotonin 1A receptor (Rattus norvegicus, UniProt P19327).
T2 construct: To the receptor fraction of the hippocampus were added a test compound and 0.5 nM of [^3H]; 8-hydroxy-dipropylaminotetralin; from tissue; host or cells: rat hippocampus membrane fraction
T2 sequence (P19327 1-422): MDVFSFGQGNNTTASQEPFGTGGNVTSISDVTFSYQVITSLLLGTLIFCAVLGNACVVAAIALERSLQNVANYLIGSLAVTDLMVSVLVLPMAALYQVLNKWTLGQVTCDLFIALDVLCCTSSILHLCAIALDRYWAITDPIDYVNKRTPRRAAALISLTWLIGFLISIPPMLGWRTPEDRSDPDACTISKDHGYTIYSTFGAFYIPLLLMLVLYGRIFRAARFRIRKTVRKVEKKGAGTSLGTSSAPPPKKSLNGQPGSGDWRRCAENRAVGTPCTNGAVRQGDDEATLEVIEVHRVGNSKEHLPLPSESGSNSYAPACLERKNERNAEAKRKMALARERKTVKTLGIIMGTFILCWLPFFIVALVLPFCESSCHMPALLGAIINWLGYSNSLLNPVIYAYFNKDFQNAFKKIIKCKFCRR
The experiment is described as follows: Binding test on [3H] 8-hydroxy-dipropylaminotetralin, hippocampus receptor fraction. Also noted: species or system SD rats. The settings on record: rat hippocampus receptor fraction, 0.5 nM [3H] 8-OH-DPAT, room temperature 30 min; read-out: 5HT1.

Structures are written as SMILES. pKi: −log10 of the molar value. Structures can show the parent of a compound that is named as a salt.

T1 sequence (P14842 whole entry): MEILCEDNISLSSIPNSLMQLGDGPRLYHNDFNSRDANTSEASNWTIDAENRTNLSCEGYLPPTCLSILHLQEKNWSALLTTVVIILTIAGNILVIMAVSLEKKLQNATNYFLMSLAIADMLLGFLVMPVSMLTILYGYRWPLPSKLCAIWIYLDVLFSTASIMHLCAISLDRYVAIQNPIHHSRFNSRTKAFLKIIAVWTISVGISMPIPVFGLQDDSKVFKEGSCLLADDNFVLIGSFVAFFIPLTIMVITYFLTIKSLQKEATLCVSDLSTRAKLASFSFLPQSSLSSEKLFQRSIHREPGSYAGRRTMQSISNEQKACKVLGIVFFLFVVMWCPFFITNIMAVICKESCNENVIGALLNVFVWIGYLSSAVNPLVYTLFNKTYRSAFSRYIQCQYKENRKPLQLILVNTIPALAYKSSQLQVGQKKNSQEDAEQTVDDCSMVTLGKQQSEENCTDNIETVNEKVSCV
Method for serotonin 1A receptor: (1) Binding test on serotonin 1A, serotonin 2 and α1 adrenalin receptors
The following reagents were employed in this test. • 1) Serotonin binoxalate (5-HT binoxalate, mfd. by Sigma Chemical Co.). • 2) Methysergide maleate (mfd. by RBI).
As radioisotope-labeled compounds, use was made of the following reagents (mfd. by NEN). • 3) [^3H] 8-Hydroxy-dipropylaminotetralin (8-OH-DPAT). • 4) [^3H]
Methysergide maleate was dissolved in distilled water before using.
Use was made of SD rats aged 6 to 8 weeks.
The rats were sacrificed by dcapitation to extirpate the cerebra. The hippocampus and cortex were separated therefrom and employed in the binding tests respectively on the serotonin 1A receptor and the serotonin 2 receptor.
The hippocampus was mixed with 50 times (on the wet weight basis) as much as 0.32 M sucrose solution while the cortex was mixed with 10 times as much the same solution. Each mixture was homogenized by using a Teflon glass homogenizer and centrifuged as 1,000× g for 10 min. The supernatant thus obtained was further centrifuged at 20,000× g for 20 min. The obtained precipitate was re-suspended in 50 times (based on the initial wet weight; in the case of the hippocampus) or 10 times (in the case of the cortex) as much a 50 Tris hydrochloride (pH 7.4) and incubated at room temperature for 30 min. After centrifuging at 20,000× g for 20 min, the obtained precipitate was further suspended and centrifuged twice each in the same manner. The precipitate thus obtained was suspended in 100 times (based on the initial wet weight; in the case of the hippocampus) or 20 times (in the case of the cortex) as much a 50 mM Tris hydrochloride solution (pH 7.4) to thereby give a receptor fraction. This receptor fraction was stored at −80° C. until using.
To the receptor fraction of the hippocampus were added a test compound and 0.5 nM of [^3H] 8-hydroxy-dipropylaminotetralin and the resultant mixture was incubated at room temperature for 30 min. Next, it was filtered through a glass filter with the use of a cell harvester. After washing the glass filter with 50 mM Tris hydrochloride (pH 7.4), the radioactivity of the receptor was measured with a liquid scintillation counter. The binding detected in the presence of 10 μM of serotonin binoxalate was referred to as the nonspecific binding.
IC50 was calculated by the probit method, while Ki was determined in accordance with the following formula: Ki=IC50(1+c/Kd) wherein c represents the concentration of the radioisotope-labeled compound, and Kd represents the dissociation constant of the radioisotope-labeled compound with respect to the receptor determined by Scatchard's analysis.

In the case of `CCN1CCN(c2nc(-c3ccc(OC)cc3)cc3cccnc23)CC1` [Example 244, 8-(4-ethylpiperazin-1-yl)-6-(4-methoxyphenyl)pyrido[2,3-c]pyridine Hydrochloride], the pKi on serotonin 2 receptor is 7.10; on serotonin 1A receptor, 7.57.

On to `CCN1CCN(c2nc(-c3ccc(OCCO)cc3)cc3cccnc23)CC1` [Example 245, 8-(1-ethylpiperazin-4-yl)-6-[4-(2-hydroxyethoxy)phenyl]-1,7-naphthyridine Dihydrochloride], for which the values for the pKi at serotonin 2 receptor and on serotonin 1A receptor were 7.14 and 6.96, respectively.

In the case of `CCN1CCN(c2nc(-c3ccc(CCCO)cc3)cc3cccnc23)CC1` [Example 247, 8-(1-ethylpiperazin-4-yl)-6-[4-(3-hydroxypropyl)phenyl]-1,7-naphthyridine Dihydrochloride], the pKi at serotonin 2 receptor was 7.54; on serotonin 1A receptor it was 7.60.

Take `CCN1CCN(c2nc(-c3ccc(CCC(C)O)cc3)cc3cccnc23)CC1` (centres unmarked) [Example 248, 8-(1-ethylpiperazin-4-yl)-6-[4-(3-hydroxybutyl)phenyl]-1,7-naphthyridine Dihydrochloride]: the pKi on serotonin 2 receptor was 7.50; at serotonin 1A receptor, 7.37.

As for `CCN1CCN(c2nc(-c3ccc(C(F)CCO)cc3)cc3cccnc23)CC1` (centres unmarked) [Example 249, 8-(1-ethylpiperazin-4-yl)-6-[4-(3-hydroxy-1-fluoropropyl)phenyl]-1,7-naphthyridine Dihydrochloride], the pKi is 7.55 on serotonin 2 receptor and 7.42 at serotonin 1A receptor.

Turning to `CCN1CCN(c2nc(-c3ccc(OCC(C)(C)O)cc3)cc3cccnc23)CC1` [Example 250, 8-(1-ethylpiperazin-4-yl)-6-[4-(2-hydroxy-2-methylpropoxy)phenyl]-1,7-naphthyridine Dihydrochloride], the pKi was 8.12 at serotonin 2 receptor and 6.91 on serotonin 1A receptor.

On to `CN1CCN(c2nc(-c3ccc(OCCO)cc3)cc3ccsc23)CC1` [Example 253, 5-[4-(2-hydroxyethoxy)phenyl]-7-(4-methylpiperazin-1-yl)thieno[2,3-c]pyridine Hydrochloride], for which the pKi on serotonin 2 receptor was 8.22; at serotonin 1A receptor, 7.12.

Consider `CCCCC(O)c1ccc(-c2cc3ccsc3c(N3CCN(CC)CC3)n2)cc1` (centres unmarked) [Example 254, 7-(1-ethylpiperazin-4-yl)-5-[4-(1-hydroxypentyl)phenyl]thieno[2,3-c]pyridine Dihydrochloride], for which the pKi on serotonin 2 receptor is 7.53; at serotonin 1A receptor, 7.22.

As to `CCN1CCN(c2nc(-c3ccc(C(O)CC(C)C)cc3)cc3ccsc23)CC1` (centres unmarked) [Example 255, 7-(1-ethylpiperazin-4-yl)-5-[4-(1-hydroxy-3-methylbutyl)phenyl]thieno[2,3-c]pyridine Dihydrochloride], the pKi was 7.40 on serotonin 2 receptor and 7.12 on serotonin 1A receptor.

For the molecule `CCN1CCN(c2nc(-c3ccc(C(F)CCO)cc3)cc3ccsc23)CC1` (centres unmarked) [Example 256, 7-(1-ethylpiperazin-4-yl)-5-[4-(3-hydroxy-1-fluoropropyl)phenyl]thieno[2,3-c]pyridine Dihydrochloride], the pKi on serotonin 2 receptor is 7.71; on serotonin 1A receptor, 8.04.

On to `CCN1CCN(c2nc(-c3ccc(CCCO)c(Cl)c3)cc3ccsc23)CC1` [Example 257, 5-[4-(3-hydroxypropyl)-3-chlorophenyl]-7-(4-ethylpiperazin-1-yl)thieno[2,3-c]pyridine Oxalate], for which the pKi at serotonin 2 receptor is 7.63; on serotonin 1A receptor it was 7.90.

For the molecule `CCN1CCN(c2nc(-c3cccc(OCCO)c3)cc3ccsc23)CC1` [Example 258, 7-(1-ethylpiperazin-4-yl)-5-[3-(2-hydroxyethoxy)phenyl]thieno[2,3-c]pyridine Dihydrochloride], the results for the pKi on serotonin 2 receptor and on serotonin 1A receptor were 7.45 and 7.61, respectively.

For `CCN1CCN(c2nc(-c3ccc(OCC(C)(C)O)cc3)cc3ccsc23)CC1` [Example 260, 7-(1-Ethylpiperazin-4-yl)-5-[4-(2-hydroxy-2-methylpropoxy)phenyl]thieno[2,3-c]pyridine dihydrochloride], the pKi was 9.27 on serotonin 2 receptor and 7.17 on serotonin 1A receptor.
